In ChEMBL document CHEMBL5316290, “Targeted Protein Degradation Induced by HEMTACs Based on HSP90” (J Med Chem, 2023):
The source made the active and inactive calls. No cut-off for these calls is given here.

Key:
B16-F10 [1] = assay: Binding affinity to HSP90/CDK4 in mouse B16-F10 assessed as ternary complex formation at 5 uM incubated for 6 hrs by co-immunoprecipitation assay; assay type: cell-based
B16-F10 [2] = assay: Induction of cell cycle arrest in mouse B16-F10 cells assessed as accumulation of cells at G1 phase at 125 nM incubated for 24 hrs by RNase/PI staining based flow cytometry analysis (reference value: 68.89%); assay type: functional
B16-F10 [3] = assay: Induction of apoptosis in mouse B16-F10 cells assessed as live cells at 125 nM incubated for 48 hrs by Annexin V-FITC/PI staining based flow cytometry analysis (reference value: 92.85 %); assay type: functional
[4] = molecular target: T1, HSP90/Cyclin-dependent kinase 4 (Mus musculus) (UniProt P30285+P07901+P11499); assay: HEMTAC activity at HSP90/CDK4 in mouse B16-F10 cells assessed as induction of CDK4 degradation at 0.5 uM measured after 12 hrs by Western blot analysis; assay type: cell-based
[5] = molecular target: T2, HSP90/Cyclin-dependent kinase 6 (Mus musculus) (UniProt P07901+Q64261+P11499); assay: HEMTAC activity at HSP90/CDK6 in mouse B16-F10 cells assessed as induction of […] degradation at 0.5 uM measured after 12 hrs by Western blot analysis; assay type: cell-based
[6] = molecular target: T1, HSP90/Cyclin-dependent kinase 4 (Mus musculus); assay: HEMTAC activity at HSP90/CDK4 in mouse B16-F10 cells assessed as induction of CDK4 degradation at 0.1 uM incubated for 24 hrs in presence of palbociclib by Western blot analysis; assay type: cell-based
[7] = Toxicity in C57BL/6J mouse implanted with mouse B16-F10 cells assessed as morphological changes in lung at 20 mg/kg, ip administered once daily for 2 weeks and measured every 2 days by H and E staining based analysis; assay type: organism-based; settings: in vivo, 336 h
[8] = molecular target: T2, HSP90/Cyclin-dependent kinase 6 (Mus musculus); assay: HEMTAC activity at HSP90/CDK6 in mouse B16-F10 cells assessed as induction of […] degradation by measuring maximal degradation incubated for 24 hrs by Western blot analysis relative to control; assay type: cell-based
B16-F10 [9] = assay: Anticancer activity against mouse B16-F10 cells implanted in C57BL/6J mouse assessed as reduction in tumor growth at 20 to 40 mg/kg, ip administered once daily for 2 weeks and measured every 2 days by vernier caliper method; assay type: functional, organism-based; settings: dose 20-40 mg/kg
B16-F10 [10] = assay: Induction of cell cycle arrest in mouse B16-F10 cells assessed as accumulation of cells at G2 phase at 125 nM incubated for 24 hrs by RNase/PI staining based flow cytometry analysis (reference value: 16.13%); assay type: functional
[11] = molecular target: T1, HSP90/Cyclin-dependent kinase 4 (Mus musculus); assay: HEMTAC activity at HSP90/CDK4 in mouse B16-F10 cells assessed as induction of CDK4 degradation by measuring maximal degradation incubated for 24 hrs by Western blot analysis relative to control; assay type: cell-based
B16-F10 [12] = assay: Induction of apoptosis in mouse B16-F10 cells assessed as late apoptotic cells at 250 nM incubated for 48 hrs by Annexin V-FITC/PI staining based flow cytometry analysis (reference value: 1.97%); assay type: functional
HFF-1 = assay: Cytotoxicity against human HFF-1 cells assessed as reduction of cell viability incubated for 72 hrs by CCK-8 assay; assay type: toxicity, cell-based; settings: hff-1, 72 h
B16-F10 [13] = assay: Induction of apoptosis in mouse B16-F10 cells assessed as late apoptotic cells at 125 nM incubated for 48 hrs by Annexin V-FITC/PI staining based flow cytometry analysis (reference value: 1.97%); assay type: functional

**Q.** For `COc1c(C)cnc(Cn2cc(C#CCCn3cc(CNC(=O)CN4CCN(c5ccc(Nc6ncc7c(C)c(C(C)=O)c(=O)n(C8CCCC8)c7n6)nc5)CC4)nn3)c3c(Cl)nc(N)nc32)c1C`, which Activity (B16-F10 [1]) is on record?
**A.** The Activity was “Active”.

**Q.** What about the Activity (B16-F10 [2]) of the same molecule?
**A.** The Activity was 74.01%.

**Q.** What about the Activity (B16-F10 [3]) of the same molecule?
**A.** Its Activity is 72.27%.

**Q.** And the Activity [4]?
**A.** Its Activity is “Active”.

**Q.** And the Activity [5]?
**A.** The Activity was “Active”.

**Q.** And the Activity [6]?
**A.** Its Activity is “inactive”.

**Q.** What about the Activity [7] of the same molecule?
**A.** The Activity was “Non-Toxic”.

**Q.** What about the Emax [8] of the same molecule?
**A.** The Emax was 92%.

**Q.** What about the Activity (B16-F10 [9]) of the same molecule?
**A.** Its Activity is “Active”.

**Q.** And the Activity (B16-F10 [10])?
**A.** Its Activity is 18.05%.

**Q.** And the Emax [11]?
**A.** Its Emax is 88%.

**Q.** And the Activity (B16-F10 [12])?
**A.** Its Activity is 15.1%.

**Q.** And the Activity (HFF-1)?
**A.** The Activity was “Non-Toxic”.

**Q.** And the Activity (B16-F10 [13])?
**A.** The Activity was 11.55%.
